ChEMBL document CHEMBL1201862, “PubChem BioAssay data set” (2004)
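These data come from cells grown in 96-well plates and exposed to compound for 48 hours at five concentrations. GI50 = concentration required for 50% inhibition of growth.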 Active and inactive are the calls of the source. Cut-off read from the data, not from the text of the source: active = GI50 up to about 1.1 µM and inactive = higher.

Key:
Assay in all cases: NCI tumour cell line growth inhibition, 48 h
EKVX = system: EKVX
SF-295 = system: SF-295
UACC-257 = system: UACC-257
NCI-H460 = system: NCI-H460
HT-29 = system: HT-29
HCC 2998 = system: HCC 2998
RXF 393 = system: RXF 393
HCT-116 = system: HCT-116
A498 = system: A498
U-251 = system: U-251
MDA-N = system: MDA-N
ACHN = system: ACHN
SNB-75 = system: SNB-75
SN12C = system: SN12C
UACC-62 = system: UACC-62
KM12 = system: KM12
CCRF-CEM = system: CCRF-CEM
SK-MEL-2 = system: SK-MEL-2
SF-268 = system: SF-268
OVCAR-4 = system: OVCAR-4
Hs-578T = system: Hs-578T
MDA-MB-231 = system: MDA-MB-231
OVCAR-3 = system: OVCAR-3
M14 = system: M14
LOX IMVI = system: LOX IMVI
HL-60 = system: HL-60
786-0 = system: 786-0
RPMI-8226 = system: RPMI-8226
BT-549 = system: BT-549
HCT-15 = system: HCT-15
PC-3 = system: PC-3
UO-31 = system: UO-31
SK-MEL-28 = system: SK-MEL-28
NCI-H226 = system: NCI-H226
SF-539 = system: SF-539
A549 = system: A549
OVCAR-5 = system: OVCAR-5
SR = system: SR
Malme-3M = system: Malme-3M
TK-10 = system: TK-10
MOLT-4 = system: MOLT-4
NCI-H522 = system: NCI-H522
MCF7 = system: MCF7
IGROV-1 = system: IGROV-1
NCI/ADR-RES = system: NCI/ADR-RES
SK-OV-3 = system: SK-OV-3
HOP-62 = system: HOP-62
SNB-19 = system: SNB-19
SW-620 = system: SW-620
CAKI-1 = system: CAKI-1
MDA-MB-435 = system: MDA-MB-435
HOP-92 = system: HOP-92
NCI-H23 = system: NCI-H23
OVCAR-8 = system: OVCAR-8
K562 = system: K562

CC(C)=CCC[C@]1(C)C=Cc2c(O)c3c(c(CC=C(C)C)c2O1)O[C@]12C(=C[C@@H]4CC1C(C)(C)O[C@@]2(C/C=C(/C)C(=O)O)C4=O)C3=O
GI50 (EKVX): 1670 nM (inactive)
GI50 (SF-295): 2300 nM (inactive)
GI50 (UACC-257): 2310 nM (inactive)
GI50 (NCI-H460): 1240 nM (inactive)
GI50 (HT-29): 461 nM (active)
GI50 (HCC 2998): 1340 nM (inactive)
GI50 (RXF 393): 500 nM (active)
GI50 (HCT-116): 256 nM (active)
GI50 (A498): 1730 nM (inactive)
GI50 (U-251): 676 nM (active)
GI50 (MDA-N): 470 nM (active)
GI50 (ACHN): 419 nM (active)
GI50 (SNB-75): 1630 nM (inactive)
GI50 (SN12C): 719 nM (active)
GI50 (UACC-62): 1730 nM (inactive)
GI50 (KM12): 1020 nM (active)
GI50 (CCRF-CEM): 273 nM (active)
GI50 (SK-MEL-2): 2020 nM (inactive)
GI50 (SF-268): 1450 nM (inactive)
GI50 (OVCAR-4): 2380 nM (inactive)
GI50 (Hs-578T): 673 nM (active)
GI50 (MDA-MB-231): 1070 nM (active)
GI50 (OVCAR-3): 1380 nM (inactive)
GI50 (M14): 1570 nM (inactive)
GI50 (LOX IMVI): 442 nM (active)
GI50 (HL-60): 285 nM (active)
GI50 (786-0): 488 nM (active)
GI50 (RPMI-8226): 368 nM (active)
GI50 (BT-549): 1910 nM (inactive)
GI50 (HCT-15): 813 nM
GI50 (PC-3): 802 nM (active)
GI50 (UO-31): 1330 nM (inactive)
GI50 (SK-MEL-28): 1280 nM (inactive)
GI50 (NCI-H226): 774 nM (active)
GI50 (SF-539): 206 nM (active)
GI50 (A549): 863 nM (active)
GI50 (OVCAR-5): 1500 nM (inactive)
GI50 (SR): 317 nM (active)
GI50 (Malme-3M): 1190 nM (inactive)
GI50 (TK-10): 861 nM (active)
GI50 (MOLT-4): 305 nM (active)
GI50 (NCI-H522): 406 nM (active)
GI50 (MCF7): 376 nM (active)
GI50 (IGROV-1): 1430 nM (inactive)
GI50 (NCI/ADR-RES): 1920 nM (inactive)
GI50 (SK-OV-3): 3010 nM (inactive)
GI50 (HOP-62): 1690 nM (inactive)
GI50 (SNB-19): 2120 nM (inactive)
GI50 (SW-620): 452 nM (active)
GI50 (CAKI-1): 973 nM (active)
GI50 (MDA-MB-435): 1030 nM (active)
GI50 (HOP-92): 1780 nM (inactive)
GI50 (NCI-H23): 938 nM (active)
GI50 (OVCAR-8): 643 nM (active)
GI50 (K562): 676 nM (active)
